The source of these data is publication PMC9604775, “Bioactive Peptides from Skipjack Tuna Cardiac Arterial Bulbs: Preparation, Identification, Antioxidant Activity, and Stability against Thermal, pH, and Simulated Gastrointestinal Digestion Treatments” (Marine Drugs, 2022).

Where two headings read alike, the source gives them in different places. Where a SMILES comes first, the peptide text is derived from it. Where no end group is shown, it is not given here.

A short description of series [1]: Stability to simulated gastrointestinal digestion (DPPH· scavenging activity). The series is classed as in vitro ADME. The following applies: two-stage model: pepsin 120 min then trypsin 120 min; 0 to 240 min; peptide 2.0 mg/mL; read-out DPPH· scavenging activity. As to the method: The stability of TCP1 to TCP11 from tuna cardiac arterial bulbs was determined according to the previous method with a slight modification. The DPPH· scavenging activity (%) of TCP1 to TCP11 at 2.0 mg/mL were measured at the set conditions to evaluate their stability.
The thermostability of TCP1 to TCP11 at 20, 40, 60, 80, or 100 °C for 60 min was analyzed in water bath. The influences of pH values of 3, 5, 7, 9, or 11 were employed to estimate the acid and alkali stability properties of TCP1 to TCP11 at 25 °C, and the detecting time was set to 60, 120, and 180 min, respectively. The influence of simulate GI digestion on the stability of TCP1 to TCP11 was evaluated by the two-stage digestion model. In short, APs (TCP1 to TCP11) were separately treated with pepsin for 120 min and trypsin for 120 min.

Another series relates to H2O2-damaged HepG2 cells. The series is classed as cell-based. As to the method:
The assay was carried out according to the method described by Hu et al., and the H2O2 concentration of 300 µM was applied to establish the oxidative damage model of HepG2 cells. Briefly, the HepG2 cells with density of 1 × 10^5 cells/well were incubated in a 96-well plate for 24 h. The supernatant in the 96-well plate was aspirated and 100 µL of peptide samples (50.0, 100.0, or 200.0 µM, respectively) were added into the protection groups respectively for incubating 8 h. After removing peptides, H2O2 with the final concentration of 300 µM was joined in the protection and model groups. After incubating for 24 h, the wells were rinsed twice with PBS and the MTT with the final concentration of 0.5 mg/mL was added into. After incubating for 4 h, the formazan crystals formed by active cells were soluble in 150 µL of DMSO and OD570 nm of the solution was determined. Finally, the cell viability was calculated using the equation: Cell viability = (ODsample/ODcontrol) × 100%(2)

[2] abbreviates: peptide 200 μmol/L, 8 h pre-incubation, then 300 µM H2O2 for 24 h, MTT, model group 50.64 ± 2.43%, mean ± SD, n = 3.

Turning to GDRGD [TCP11, Gly-Asp-Arg-Gly-Asp], the “Declined percentage of DPPH· scavenging activity after simulated GI digestion” value (shortened to “Declined percentage”) in series [1] was 2.65%.

On to YEGGD [TCP6, Tyr-Glu-Gly-Gly-Asp], for which the “viability of H2O2-damaged HepG2 cells” value in the series on H2O2-damaged HepG2 cells (setting [2]) came out at 74.68 ± 1.69%.

As to GPGLM [TCP9, Gly-Pro-Gly-Leu-Met], in the series with H2O2-damaged HepG2 cells (8 h, 200 μmol/L), the “viability of H2O2-damaged HepG2 cells” value is on record as 78.54 ± 3.06%.

For `NCCCC[C@H](NC(=O)[C@H](CCCCN)NC(=O)[C@@H]1CCCN1)C(=O)O` [TCP3, Pro-Lys-Lys] (H-Pro-Lys-Lys-OH), the “viability of H2O2-damaged HepG2 cells” value with H2O2-damaged HepG2 cells (8 h, 200 μmol/L) is 81.26 ± 1.86%.

Consider `CC(C)C[C@H](NC(=O)CN)C(=O)N[C@@H](CC(N)=O)C(=O)O` [TCP10, Gly-Leu-Asn] (H-Gly-Leu-Asn-OH), for which the “Declined percentage” value in series [1] is 3.15%.

Regarding `CC(=O)N[C@@H](CS)C(=O)O` [N-Acetyl-L-Cysteine (NAC), N-Acetyl-L-Cysteine], the “viability of H2O2-damaged HepG2 cells” value with H2O2-damaged HepG2 cells (setting [2]) worked out at 90.06 ± 3.16%.

As for GEGQR [TCP8, Gly-Glu-Gly-Gln-Arg], the “Declined percentage” value in series [1] is given as 4.21%.

Take GEQSN [TCP2, Gly-Glu-Gln-Ser-Asn]: in series [1], the “Declined percentage” value is listed as 4.49%.

For the compound GEEGD [TCP5, Gly-Glu-Glu-Gly-Asp], in series [1], the “Declined percentage” value is 4.25%.
